Data: patent publication US11311613B2, “Development of agonist epitopes of the human papillomavirus” (priority 2016, dated 2022)
“Also recorded” adds a separate entry of the source. Read-outs that look alike come from different tables or passages of the source.

Assays:
[1] = system: HN-12 head and neck squamous carcinoma cell line (HLA-A2 positive); assay: Lysis of HN-12 cells by peptide-specific CTLs; format: cell-based, human; conditions: for % specific lysis (SD), HN-12: CTLs at IVS5, effector-to-target ratio 25:1; for lysis of HN-12 (in words): compared to native counterparts
Text: (§1) HPV-specific T cells were generated using infection of dendritic cells (DCs) with Ad-HPV followed by stimulation of the T cells with each agonist and native peptide. In particular, DCs were infected with Ad5 HPV at 20,000 MOI. Infected DCs were used to generate specific CTLs using autologous PBMC. Autologous DCs were used as APCs for three in vitro stimulations (IVS). Autologous peptide-pulsed B cells were used to re-stimulate antigen-specific CTLs for two additional IVS. CTLs were used at IVS5.
(§2) Results are expressed in % specific lysis (SD). Effector-to-target ratio used was 25:1. CTLs were established from a normal HLA-A2 donor. HN-4 and HN-12 cells are head and neck squamous carcinoma cell lines (HLA-A2 positive). ASPC-1 is a pancreatic cancer cell line (HPV16 E6 and E7 negative HLA-A2 negative).

[2] = system: HPV-specific T cell lines; assay: IFN-γ production by HPV-specific T cell lines stimulated with Ad5-infected human dendritic cells; format: cell-based; conditions: for activation of T cells directed against the epitope (in words): human DCs infected with Ad-5[E1,E2b^neg]HPV
Method: Human DC (6 day culture in IL-4 and GM-CSF) were infected with Ad5 [E1,E2b]-HPV vector and Ad5 [E1,E2b]-Null at 1×10^5/well (24-well plate) in 0.5 ml of AIM-V. Ad5 vectors were used at 20,000 MOI for 1 hour and then 1.5 ml of AIM-V were added to each well. Infected DCs were incubated for 48 hours and then washed and used for stimulation of human antigen-specific T cells. Results are expressed in pg of IFN-γ per 5×10^5 T cells/ml. DC only=<0.73 pg/ml.

[3] = system: CaSki cervical carcinoma cell line (HPV16 E6 and E7 positive HLA-A2 positive); assay: Lysis of CaSki tumor cells by peptide-specific CTLs; format: cell-based, human; parameters: key to Lysis: + denotes a greater level than the native epitope; = denotes the same level as the native epitope; − denotes a lower level than the native epitope; conditions: for % specific lysis (SD), CaSki (HLA-A2+ HPV E6+ and E7+): CTLs at IVS5, effector-to-target ratio 25:1; for Lysis: level compared with the native epitope; for lysis of CaSki cervical carcinoma cells (in words): compared to T cells generated with the native epitope counterpart
Text: as §1
(§3) Results are expressed in % specific lysis (SD). Effector-to-target ratio used was 25:1. CTLs were established from a normal HLA-A2 donor. CaSki is a cervical carcinoma cell line (HPV16 E6 and E7 positive HLA-A2 positive). ASPC-1 is a pancreatic cancer cell line (HPV16 E6 and E7 negative HLA-A2 negative).

[4] = system: ASPC-1 pancreatic cancer cell line (HPV16 E6 and E7 negative HLA-A2 negative); assay: Lysis of ASPC-1 control cells by peptide-specific CTLs; format: cell-based, human; conditions: CTLs at IVS5, effector-to-target ratio 25:1; for % specific lysis (SD), ASPC-1 (HLA-A2neg HPV E6neg and E7neg): Table 4; for % specific lysis (SD), ASPC-1: Table 5
Text: as §1, §3, §2

CTL (T cells) = assay: IFN-γ production by CTL stimulated by autologous B cells pulsed with corresponding peptide; format: cell-based, human; parameters: key to IFN-γ: + denotes a greater level than the native epitope; = denotes the same level as the native epitope; − denotes a lower level than the native epitope; conditions: for interferon production (in words): T cells stimulated by peptide-pulsed autologous B cells
Text: Autologous B cells were pulsed with each native and agonist E6 peptides to stimulate production of interferon by T cells.
Autologous B cells were pulsed with each native and agonist E7 peptides to stimulate production of interferon by T cells.

[5] = system: HN-4 head and neck squamous carcinoma cell line (HLA-A2 positive); assay: Lysis of HN-4 cells by peptide-specific CTLs; format: cell-based, human; conditions: for % specific lysis (SD), HN-4: CTLs at IVS5, effector-to-target ratio 25:1; for lysis of HN-4 (in words): compared to native counterparts
Text: as §1, §2

HLA-A2 molecules = target: T1, HLA-A2 molecules (Homo sapiens, UniProt P04439, D140Y/D185E/D98H/E176V/E277Q/G131W/G231S/I119V/I121R/I166T/I218V/L300P/L318F/N151K/N90K/P208A/P217A/Q86G/Q94H/R138H/R169H/T345S); assay: T2A2 binding of HPV-16 E6/E7 peptides to HLA-A2; parameters: T2A2 Binding: unit not given here
T1 construct: endogenous in cells; host or cells: T2A2 cells (T2 cell line expressing HLA-A2; only the column head names it)

[6] = DCs infected with Ad5 [E1,E2b]-HPV (20,000 MOI)
[7] = DCs infected with Ad5 [E1,E2b]-Null (20,000 MOI)
[8] = CTL line stimulated by autologous B cells pulsed with corresponding HPV-16 E6 peptide
[9] = E6 CTL line, autologous B cells with NO peptide
[10] = level compared with the native epitope
[11] = CTL line stimulated by autologous B cells pulsed with corresponding HPV-16 E7 peptide
[12] = E7 CTL line, autologous B cells with NO peptide

Row | Sequence | % specific lysis (SD), HN-12 [1] | IFN-γ [2, 6] | IFN-γ [2, 7] | IFN-γ ([2]; DCs only (uninfected)) | IFN-γ ([2]; No DCs) | % specific lysis (SD), CaSki (HLA-A2+ HPV E6+ and E7+) [3] | % specific lysis (SD), ASPC-1 (HLA-A2neg HPV E6neg and E7neg) [4] | % specific lysis (SD), ASPC-1 [4] | IFN-γ (CTL (T cells); [8]) [pg/mL] | IFN-γ (CTL (T cells); [9]) [pg/mL] | % specific lysis (SD), HN-4 [5] | T2A2 Binding (HLA-A2 molecules; binding to HLA-A2) | Lysis [3] | interferon production (in words) (CTL (T cells)) | IFN-γ (CTL (T cells); [11]) [pg/mL] | IFN-γ (CTL (T cells); [12]) [pg/mL] | further results
1 | KLPQLCTEL [E6-1, reference compound] | 16.5 (1.7) % | 114 pg of IFN-γ per 5×10^5 T cells/ml | <0.73 pg of IFN-γ per 5×10^5 T cells/ml | 2.17 pg of IFN-γ per 5×10^5 T cells/ml | <0.73 pg of IFN-γ per 5×10^5 T cells/ml | 34.1 (3.6) % | 2.4 (0.6) % | 0.3 (0.9) % | 264 | <15.6 | 21.2 (4.4) % |  |  |  |  |  | T2A2 Binding (HLA-A2 molecules): 853
2 | QQYNKPLCDL [E6-3, reference compound] | 10.2 (3.8) % | 135 pg of IFN-γ per 5×10^5 T cells/ml | 58.5 pg of IFN-γ per 5×10^5 T cells/ml | <0.73 pg of IFN-γ per 5×10^5 T cells/ml | <0.73 pg of IFN-γ per 5×10^5 T cells/ml | 38.1 (3.3) % | 0.6 (0.2) % | -1.1 (0.7) % | 338 | 121 | 7.0 (0.4) % | 1,020 |  |  |  |  | 
3 | KISEYRHYV [E6-A2] |  |  |  |  |  | 24.2 (1.2) % | 0.2 (0.5) % |  | 172 | <15.6 |  | 877 | − | produced more interferon than the agonist counterpart |  |  | IFN-γ (CTL (T cells); [10]): −
4 | RTLEDLLMGT [E7-3, reference compound] | 34.6 (3.9) % | 560 pg of IFN-γ per 5×10^5 T cells/ml | 70.8 pg of IFN-γ per 5×10^5 T cells/ml | 4.24 pg of IFN-γ per 5×10^5 T cells/ml | <0.73 pg of IFN-γ per 5×10^5 T cells/ml | 49.6 (8.7) % | 0.5 (0.1) % | 1.1 (0.7) % |  |  | 25.8 (3.5) % |  |  |  | 338 | <15.6 | 
5 | TLHEYMLDV [E7-A2] |  |  |  |  |  | 41.9 (4.1) % | 0.6 (1.3) % |  |  |  |  | 1,529 | − | low and produced more interferon than the agonist counterpart | 95.3 | <15.6 | IFN-γ (CTL (T cells); [10]): −; HLA-A2 binding (in words) (HLA-A2 molecules): strongest; also recorded: good binding
6 | KLPQLCTEV [E6-A1] | 49.4 (3.1) % | 683 pg of IFN-γ per 5×10^5 T cells/ml | 1.0 pg of IFN-γ per 5×10^5 T cells/ml | <0.73 pg of IFN-γ per 5×10^5 T cells/ml | 0.89 pg of IFN-γ per 5×10^5 T cells/ml | 70.8 (10.7) % | -0.2 (6.6) % | 0.2 (0.9) % | 699 | <15.6 | 46.2 (1.1) % | 1,335 |  | best interferon production |  |  | lysis of HN-12 (in words) [1]: more lysis; activation of T cells directed against the epitope (in words) [2]: able to activate; lysis of CaSki cervical carcinoma cells (in words) [3]: Enhanced lysis; lysis of HN-4 (in words) [5]: more lysis; HLA-A2 binding (in words) (HLA-A2 molecules): strongest
7 | TLHEYMLDL [E7-2, reference compound] |  |  |  |  |  | 59.2 (5.3) % | 0.1 (1.0) % |  |  |  |  |  |  |  | 475 | 95.6 | 
8 | YMLDLQPET [E7-1, reference compound] |  |  |  |  |  | 39.8 (1.7) % | 0.4 (0.3) % |  |  |  |  | 1,105 |  |  | 247 | 155.6 | 
9 | KISEYRHYC [E6-2, reference compound] |  |  |  |  |  | 45.1 (2.8) % | 0.5 (0.7) % |  | 455 | <15.6 |  |  |  |  |  |  | 
10 | RTLEDLLMGV [E7-A3] | 41.9 (2.9) % | 931 pg of IFN-γ per 5×10^5 T cells/ml | <0.73 pg of IFN-γ per 5×10^5 T cells/ml | <0.73 pg of IFN-γ per 5×10^5 T cells/ml | <0.73 pg of IFN-γ per 5×10^5 T cells/ml | 54.5 (7.3) % | 0.6 (0.1) % | 0.6 (0.7) % |  |  | 40.2 (1.8) % | 1,263 | + | best interferon production | 840 | <15.6 | lysis of HN-12 (in words) [1]: more lysis; activation of T cells directed against the epitope (in words) [2]: able to activate; lysis of CaSki cervical carcinoma cells (in words) [3]: Enhanced lysis; lysis of HN-4 (in words) [5]: more lysis; HLA-A2 binding (in words) (HLA-A2 molecules): strongest
11 | YMLDLQPEV [E7-A1] |  |  |  |  |  | 27.8 (3.6) % | 0.9 (0.6) % |  |  |  |  | 1,171 | − |  | 230 | <15.6 | IFN-γ (CTL (T cells); [10]): =
